From patent US20100041089A1, “IMPROVED METHOD FOR DETECTING CHEMICAL […]” (priority 2006, published 2010)

Tested on: yeast genes (expressed mRNA)
Assay: DNA chip measurement of expressed mRNA of yeast genes after culture with a toxic chemical substance
Type: cell-based, Saccharomyces cerevisiae S288C
Conditions: for level of expressed mRNA in the presence of chemical substance / level in the absence of chemical substance: cultured two hours with the chemical substance; for The level of expressed mRNA in the presence of chemical substance/The level of expressed mRNA in the absence of chemical substance: cultured two hours with substance
Outline: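 S. cerevisiae S288C grown at 25 °C in YPD, exposed in log phase for 2 h to a toxicant at growth-inhibiting, non-lethal concentration. Cy3/Cy5-labelled cDNA from poly(A) mRNA hybridized to whole-genome chip at 65 °C >12 h. Ratio to untreated control, ≥2 significant.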

[Cl][Pb][Cl] [(4), PbCl2]
level of expressed mRNA in the presence of chemical substance / level in the absence of chemical substance (yeast gene YDR133C): 2.0 | level of expressed mRNA in the presence of chemical substance / level in the absence of chemical substance (yeast gene YDR250C): 3.0 | level of expressed mRNA in the presence of chemical substance / level in the absence of chemical substance (yeast gene YDR278C): 1.0 | level of expressed mRNA in the presence of chemical substance / level in the absence of chemical substance (yeast gene YDR281C): 2.1 | The level of expressed mRNA in the presence of chemical substance/The level of expressed mRNA in the absence of chemical substance (yeast gene YDR330W): 0.8 | level of expressed mRNA in the presence of chemical substance / level in the absence of chemical substance (yeast gene YDR366C): 0.9 | The level of expressed mRNA in the presence of chemical substance/The level of expressed mRNA in the absence of chemical substance (yeast gene YDR411C): 1.2 | The level of expressed mRNA in the presence of chemical substance/The level of expressed mRNA in the absence of chemical substance (yeast gene YDR511W): 2.3 | The level of expressed mRNA in the presence of chemical substance/The level of expressed mRNA in the absence of chemical substance (yeast gene YDR545W): 0.7 | The level of expressed mRNA in the presence of chemical substance/The level of expressed mRNA in the absence of chemical substance (yeast gene YEL001C): 0.7 | The level of expressed mRNA in the presence of chemical substance/The level of expressed mRNA in the absence of chemical substance (yeast gene YER004W): 1.4 | The level of expressed mRNA in the presence of chemical substance/The level of expressed mRNA in the absence of chemical substance (yeast gene YER035W): 1.9 | The level of expressed mRNA in the presence of chemical substance/The level of expressed mRNA in the absence of chemical substance (yeast gene YER079W): 2.0 | The level of expressed mRNA in the presence of chemical substance/The level of expressed mRNA in the absence of chemical substance (yeast gene YER106W): 1.2 | The level of expressed mRNA in the presence of chemical substance/The level of expressed mRNA in the absence of chemical substance (yeast gene YER158C): 3.1 | The level of expressed mRNA in the presence of chemical substance/The level of expressed mRNA in the absence of chemical substance (yeast gene YER163C): 1.6 | The level of expressed mRNA in the presence of chemical substance/The level of expressed mRNA in the absence of chemical substance (yeast gene YER175C): 2.2 | The level of expressed mRNA in the presence of chemical substance/The level of expressed mRNA in the absence of chemical substance (yeast gene YFL006W): 1.0 | The level of expressed mRNA in the presence of chemical substance/The level of expressed mRNA in the absence of chemical substance (yeast gene YFL010C): 1.0 | The level of expressed mRNA in the presence of chemical substance/The level of expressed mRNA in the absence of chemical substance (yeast gene YFL024C): 0.7 | The level of expressed mRNA in the presence of chemical substance/The level of expressed mRNA in the absence of chemical substance (yeast gene YFL032W): 0.8 | level of expressed mRNA in the presence of chemical substance / level in the absence of chemical substance (yeast gene YFR026C): 0.8 | The level of expressed mRNA in the presence of chemical substance/The level of expressed mRNA in the absence of chemical substance (yeast gene YGL037C): 2.1 | The level of expressed mRNA in the presence of chemical substance/The level of expressed mRNA in the absence of chemical substance (yeast gene YGL047W): 2.3 | The level of expressed mRNA in the presence of chemical substance/The level of expressed mRNA in the absence of chemical substance (yeast gene YGL053W): 2.5 | level of expressed mRNA in the presence of chemical substance / level in the absence of chemical substance (yeast gene YGL088W): 1.1 | The level of expressed mRNA in the presence of chemical substance/The level of expressed mRNA in the absence of chemical substance (yeast gene YGL121C): 4.2 | The level of expressed mRNA in the presence of chemical substance/The level of expressed mRNA in the absence of chemical substance (yeast gene YGL199C): 1.0 | level of expressed mRNA in the presence of chemical substance / level in the absence of chemical substance (yeast gene YGR038W): 0.8 | The level of expressed mRNA in the presence of chemical substance/The level of expressed mRNA in the absence of chemical substance (yeast gene YGR101W): 1.1 | The level of expressed mRNA in the presence of chemical substance/The level of expressed mRNA in the absence of chemical substance (yeast gene YGR110W): 5.9 | The level of expressed mRNA in the presence of chemical substance/The level of expressed mRNA in the absence of chemical substance (yeast gene YGR130C): 1.6 | level of expressed mRNA in the presence of chemical substance / level in the absence of chemical substance (yeast gene YGR139W): 0.7 | The level of expressed mRNA in the presence of chemical substance/The level of expressed mRNA in the absence of chemical substance (yeast gene YGR154C): 0.5 | The level of expressed mRNA in the presence of chemical substance/The level of expressed mRNA in the absence of chemical substance (yeast gene YGR221C): 1.4 | level of expressed mRNA in the presence of chemical substance / level in the absence of chemical substance (yeast gene YGR243W): 5.0 | level of expressed mRNA in the presence of chemical substance / level in the absence of chemical substance (yeast gene YGR293C): 0.0 | level of expressed mRNA in the presence of chemical substance / level in the absence of chemical substance (yeast gene YHL006C): 0.6 | level of expressed mRNA in the presence of chemical substance / level in the absence of chemical substance (yeast gene YHR095W): 2.1 | level of expressed mRNA in the presence of chemical substance / level in the absence of chemical substance (yeast gene YHR105W): 6.3 | The level of expressed mRNA in the presence of chemical substance/The level of expressed mRNA in the absence of chemical substance (yeast gene YHR138C): 2.8 | level of expressed mRNA in the presence of chemical substance / level in the absence of chemical substance (yeast gene YHR181W): 1.4 | The level of expressed mRNA in the presence of chemical substance/The level of expressed mRNA in the absence of chemical substance (yeast gene YHR199C): 2.0 | The level of expressed mRNA in the presence of chemical substance/The level of expressed mRNA in the absence of chemical substance (yeast gene YIL023C): 1.8 | The level of expressed mRNA in the presence of chemical substance/The level of expressed mRNA in the absence of chemical substance (yeast gene YIL041W): 1.3 | The level of expressed mRNA in the presence of chemical substance/The level of expressed mRNA in the absence of chemical substance (yeast gene YIL087C): 1.6 | level of expressed mRNA in the presence of chemical substance / level in the absence of chemical substance (yeast gene YIL127C): 1.2 | level of expressed mRNA in the presence of chemical substance / level in the absence of chemical substance (yeast gene YJL017W): 1.1 | level of expressed mRNA in the presence of chemical substance / level in the absence of chemical substance (yeast gene YJL037W): 2.4 | The level of expressed mRNA in the presence of chemical substance/The level of expressed mRNA in the absence of chemical substance (yeast gene YJL057C): 1.7 | The level of expressed mRNA in the presence of chemical substance/The level of expressed mRNA in the absence of chemical substance (yeast gene YJL066C): 2.5 | The level of expressed mRNA in the presence of chemical substance/The level of expressed mRNA in the absence of chemical substance (yeast gene YJL082W): 1.1
